From patent publication US20260042831A1, “METHODS OF TREATING SARCOIDOSIS WITH A TNF-A ANTIBODY AND ASSOCIATED COMPOSITIONS AND METHODS” (XENTRIA, INC., priority 2022, published 2026)
“Also recorded” adds a separate entry of the source. Where two headings read alike, the source gives them in different places.

Tests used:
[1] = test system: chronic refractory pulmonary sarcoidosis; details: low- and high-dose IV infusion, at 24 weeks; cited from earlier work
[2] = test system: normal human tissues and human sarcoidosis tissue; assay: Tissue cross-reactivity study (GLP, immunohistochemistry on cryosections); type: binding; details: for Tissues Showing Evidence of Staining: Sp2/0-Ag14 cells: negative control; for Tissues Showing Evidence of Staining: T3-33 (TNFα-expressing) cells: positive control, 5 and 20 μg/mL
Protocol: Human tonsil, human lung and lymph node with sarcoidosis, and human small intestine with Crohn's disease were also included in the study.
Samples from 1 to 3 separate donors from each of the listed tissues were evaluated. Fresh, unfixed tissue samples were placed into molds, filled with Tissue-Tek® OCT Compound, and frozen at −85 to −70° C. until sectioning. Sections were cut at approximately 5 μm and fixed in acetone for 10 minutes at room temperature. Human blood smears were stored at −85° to −70° C. until fixation and staining. XTMAB16 (primary antibody) was incubated overnight with biotinylated donkey anti-human IgG secondary labeled antibody. XTMAB16 and the control article, hIgG1, were tested at concentration of 5 and 20 μg/mL. Immunopathology was assessed by light microscopy.
The following human tissues were assessed in this cross-reactivity study: • 1. Positive Control: • Cryosections of T3-33 (TNFα-expressing) cells • 2. Negative Control: • Cryosections of Sp2/0-Ag14 cells • 3. Ancillary Controls: • Cryosections of human tonsil (mononuclear cells; 2 donors) • Cryosections of human small intestine with Crohn's disease (mononuclear cells; 1 donor) • Cryosections of human lung with sarcoidosis (mononuclear cells; 1 donor) • Cryosections of human lymph node with sarcoidosis (mononuclear cells; 1 donor)

[3] = test system: transgenic TC (TgTC) mice (rheumatoid arthritis model); assay: In vivo primary pharmacology: arthritis scores in TgTC mice; parameters: species or system mouse; details: for arthritis scores compared to vehicle control: Day 29 and Day 43 (p<0.01)
[4] = test system: TNFα, IL-1β, IFNγ release; assay: In vitro granuloma model of sarcoidosis: supernatant cytokine release (ELISA); details: 30 minutes pre-treatment, 7 days following PPD
Source text: (§1) PMBCs were exposed to either uncoated bead (UNC) or Mycobacterium tuberculosis (M. tb) antigen PPD-coated beads for 7 days. […] Following imaging, supernatant samples were collected and quantified for extracellular cytokine release using an enzyme-linked immunosorbent assay.

[5] = test system: PBMCs from subjects with active pulmonary sarcoidosis; assay: In vitro granuloma model of sarcoidosis: granuloma formation (MIPAR area fraction)
Source text: as §1

[6] = higher staining concentration (20 μg/mL), rare to occasional cells
[7] = lower staining concentration (5 μg/mL)

For “Infliximab: a monoclonal antibody (mAb) targeting TNFα that is being used off-label to treat sarcoidosis”, the “increase in predicted forced vital capacity” value [1] is listed as 2.5%.
In the case of “XTMAB-16: a chimeric (human/murine) IgG1 mAb directed against TNFα”, the “Tissues Showing Evidence of Staining: Smooth myocytes” value ([2]; adrenal, bladder, cerebellum, cerebral cortex, cervix, kidney, large intestine, liver, lymph node, lung, striated muscle, nerve, ovary, pancreas, placenta, prostate, parathyroid, skin, small intestine, spleen, stomach, testis, thymus, tonsil, uterus) is reported as “Cytoplasm of vascular and/or intrinsic smooth”, the “Tissues Showing Evidence of Staining: mononuclear cells in human tonsil, small intestine with Crohn's disease, lung with sarcoidosis, lymph node with sarcoidosis” value ([2]; ancillary controls) is reported as “Ancillary control tissues (+)” and the “majority of non-mononuclear cell binding” value ([2]; binding observed at only the higher concentration in most tissues) is reported as “low affinity”. The “Tissues Showing Evidence of Staining: Epithelial cells” value ([2]; esophagus, Fallopian tube, kidney, lung (bronchioles), pancreas (acini), pituitary, salivary gland, skin (sweat glands), stomach (mucosa)) was “Cytoplasm only of epithelial cells stained”, the “mononuclear cell staining intensity in normal human tissues” value ([2]; higher concentration) was “weak to strong or weak to moderate” and the “staining of membrane and cytoplasm of mononuclear cells in human tonsil” value [2, 6] was “weakly to strongly stained”. The “staining of mononuclear cells in small intestine with Crohn's disease, lung with sarcoidosis, lymph node with sarcoidosis” value [2, 6] was “weakly to strongly stained”, the “Tissues Showing Evidence of Staining: Glomerular tuft cells” value ([2]; kidney) was “Cytoplasm of renal glomerular tuft cells” and the “mononuclear cell staining in normal human tissues” value ([2]; lower concentration, versus higher concentration) was “comparable, reduced, or no staining”. The “staining of mononuclear cells in human tonsil” value [2, 7] was “weak to strong and rare staining”, the “staining of mononuclear cells in small intestine with Crohn's disease, lung with sarcoidosis, lymph node with sarcoidosis” value [2, 7] was “weak to moderate and rare staining” and the “Tissues Showing Evidence of Staining: Endothelial cells” value ([2]; lymph node) was “Cytoplasm of endothelial cells in the lymph node”. For the same substance, the “Tissues Showing Evidence of Staining: Myoepithelial cells” value ([2]; mammary gland) was “Membrane and cytoplasm of myoepithelial cells”, the “Tissues Showing Evidence of Staining: Sp2/0-Ag14 cells” value [2] was “Negative control cryosections (−)” and the “Tissues Showing Evidence of Staining: Sp2/0-Ag14 cells” value ([2]; listed as XTMAB16) was “did not react specifically”. The “Tissues Showing Evidence of Staining: Mononuclear cells” value ([2]; normal human bladder, cervix, esophagus, large intestine, liver (Kupffer cells), lymph node, lung, pancreas, placenta (Hofbauer cells), parathyroid, salivary gland, skin, small intestine, spleen, stomach, thyroid, thymus, tonsil, uterus) was “stained the membrane and cytoplasm; also recorded: Membrane and cytoplasm of resident, migrating,”, the “Tissues Showing Evidence of Staining: T3-33 (TNFα-expressing) cells” value [2] was “Positive control cells (+)” and the “Tissues Showing Evidence of Staining: T3-33 (TNFα-expressing) cells” value ([2]; listed as XTMAB16) was “weak to strong membrane and cytoplasmic staining”. For the same substance, the “arthritis scores compared to vehicle control” value ([3]; 20 mg/kg/dose on Days 1, 15, 29) was “statistically significant improvement”, the “arthritis scores compared to vehicle control” value ([3]; 40 mg/kg/dose on Days 1, 15, 29) was “statistically significant improvement” and the “arthritis scores, 20 versus 40 mg/kg/dose” value ([3]; t test: p>0.05) was “no significant differences”. For the same substance, the granuloma cytokine release [4] was “significant dose-response effect”, the “IC50 for decrease in granuloma area fraction” value [5] was 5.197 µg/mL and the “granuloma formation (area fraction)” value ([5]; 30 minutes pre-treatment (XTMAB-16 1 to 40 μg/mL; prednisone 1 to 10 μM), 7 days following PPD) was “significantly attenuated; also recorded: significant dose-response effect”. The “IC50 for decrease in granuloma area fraction” value ([5]; MIPAR area fraction, all subject samples, 7 days after PPD-coated beads) was 5.2 µg/mL.
